Data reported in patent US8268818B2, “Inhibitors of C-MET and uses thereof” (Vertex Pharmaceuticals Incorporated, priority 2006, dated 2012).

What follows are compounds tested against PI3Kγ (Homo sapiens, UniProt P48736) (assay: PI3K inhibition assay, Protocol B (33P-ATP, glass fiber filter plate)). Settings: not given.
Format: biochemical
Protocol: Compounds were screened for their ability to inhibit PI3Kγ using one of the assays below.
To each well of a 96 well polystyrene plate [Corning Costar Item No. 3795], 61 μL of Reaction Mix [55 mM HEPES pH 7.5, 11 mM MgCl2, 27 mM NaCl, 5.5 mM DTT, 0.11 mg/mL BSA, 51 μM phosphatidylinositol(4,5)bisphosphate diC16 (PI(4,5)P2; Avanti Polar Lipids, Cat. No. 840046P) and 18 nM PI3Kγ] was added. Separately, ten 2.5-fold serial dilutions of compounds of the invention were prepared in 100% DMSO with the last two wells reserved for no inhibitor controls (enzyme+no compound and no enzyme control+no compound). 1 μL it of compound or DMSO alone was added by 12-channel hand pipet and incubated for 10 minutes at room temperature (25° C.). To initiate the reaction, 5 μl of ATP Mix [49 mM HEPES pH 7.5 and 1340 ^33P-ATP was added and allowed to incubate for 30 min. at 25° C. Final concentrations of the reaction were 50 mM HEPES 7.5, 10 mM MgCl2, 25 mM NaCl, 5 mM DTT, 0.1 mg/mL BSA, 46 μM PI(4,5)P2, 16.6 nM PI3Kγ, and 100 μM ATP. Final inhibitor concentrations ranged from 10 μM to 1 nM.
After incubation, 60 μL of the reaction was quenched by transferring to 504 of 20% TCA/Water in each well of a 96 well glass fiber filter plate [Millipore Cat. No. MAFBN0B50]. The plate was dried by vacuum and then washed five times in a Bio-Tek Instruments ELX-405 Auto Plate Washer with 150 μL of 5% TCA/Water. 50 μL of scintillation fluid was added to each well and the plate was read immediately on a Perkin-Elmer TopCount™ NXT liquid scintillation counter.
Inhibition data was background subtracted (no enzyme control+no inhibitor control) and fit to the competitive tight binding Ki equation described by Morrison and Stone. [J. F. Morrison and S. R. Stone, Comments Mol. Cell. Biophys. 2 (1985) 347-368].

PI3Kγ, sequence (P48736 whole entry, species assumed): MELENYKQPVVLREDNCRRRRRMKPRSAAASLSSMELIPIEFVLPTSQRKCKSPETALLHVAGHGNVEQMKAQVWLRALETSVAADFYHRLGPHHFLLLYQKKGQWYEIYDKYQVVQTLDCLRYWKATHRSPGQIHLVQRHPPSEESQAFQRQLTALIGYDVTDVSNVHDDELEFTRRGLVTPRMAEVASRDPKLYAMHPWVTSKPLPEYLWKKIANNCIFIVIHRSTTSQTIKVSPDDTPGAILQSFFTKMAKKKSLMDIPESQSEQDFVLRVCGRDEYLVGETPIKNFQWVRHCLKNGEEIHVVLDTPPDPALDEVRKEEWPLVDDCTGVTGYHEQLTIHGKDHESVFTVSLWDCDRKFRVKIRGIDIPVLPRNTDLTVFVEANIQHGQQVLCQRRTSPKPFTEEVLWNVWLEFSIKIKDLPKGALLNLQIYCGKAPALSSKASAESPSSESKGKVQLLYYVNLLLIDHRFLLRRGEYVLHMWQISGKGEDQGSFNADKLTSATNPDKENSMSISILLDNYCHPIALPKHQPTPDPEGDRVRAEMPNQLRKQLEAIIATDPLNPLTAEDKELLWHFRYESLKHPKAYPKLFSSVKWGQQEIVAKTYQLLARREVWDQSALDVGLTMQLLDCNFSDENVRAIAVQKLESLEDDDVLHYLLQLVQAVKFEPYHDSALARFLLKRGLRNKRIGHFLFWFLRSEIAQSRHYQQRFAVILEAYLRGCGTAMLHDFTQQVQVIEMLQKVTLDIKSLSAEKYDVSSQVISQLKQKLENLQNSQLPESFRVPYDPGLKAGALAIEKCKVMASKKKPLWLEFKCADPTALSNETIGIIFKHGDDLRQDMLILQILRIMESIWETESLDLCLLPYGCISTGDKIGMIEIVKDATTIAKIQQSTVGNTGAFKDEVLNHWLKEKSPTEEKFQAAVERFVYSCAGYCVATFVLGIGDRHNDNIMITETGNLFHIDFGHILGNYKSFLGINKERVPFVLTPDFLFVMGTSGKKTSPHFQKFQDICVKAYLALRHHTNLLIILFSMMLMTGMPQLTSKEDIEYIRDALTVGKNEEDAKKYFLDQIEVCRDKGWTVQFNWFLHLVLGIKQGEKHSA

| SMILES | Ki |
| --- | --- |
| CC(=O)Nc1nc(C)c(-c2ccc(C(=O)N3CCC(C#N)(c4ccccc4)CC3)o2)s1 [Compound 16] | 0.1 to 1 µM |

Same assay, conditions: Protocol B; 100 μM ATP, 46 μM PI(4,5)P2 diC16, 16.6 nM PI3Kγ; average if more than one result; read-out: PI3Kγ enzyme inhibition Ki

| SMILES | Ki |
| --- | --- |
| CC(=O)Nc1nc(C)c(-c2ccc(S(=O)(=O)NCCC#N)o2)s1 [Compound 26] | < 0.1 µM |
| CC(=O)Nc1nc(C)c(-c2ccc(S(=O)(=O)NCc3cccc(Cl)c3)o2)s1 [Compound 37] | < 0.1 µM |
| CC(=O)Nc1nc(C)c(-c2ccc(S(=O)(=O)NCc3cc(Cl)cc(Cl)c3)o2)s1 [Compound 44] | 0.1 to 1 µM |
| CC(=O)Nc1nc(C)c(-c2ccc(S(=O)(=O)N3CCN(Cc4ccccc4)CC3)o2)s1 [Compound 35] | < 0.1 µM |
| CC(=O)Nc1nc(C)c(-c2ccc(C(=O)N3CCCCC3)o2)s1 [Compound 11] | 0.1 to 1 µM |
| CC(=O)Nc1nc(C)c(-c2ccc(S(=O)(=O)N(C)CC(F)(F)F)o2)s1 [Compound 61] | < 0.1 µM |
| CC(=O)Nc1nc(C)c(-c2ccc(S(=O)(=O)N[C@@H](CO)c3ccccc3)o2)s1 [Compound 53] | < 0.1 µM |
| CC(=O)Nc1nc(C)c(-c2ccc(S(=O)(=O)NCc3cccc(F)c3)o2)s1 [Compound 36] | < 0.1 µM |
| CC(=O)Nc1nc(C)c(-c2ccc(S(=O)(=O)NCc3ccccc3Cl)o2)s1 [Compound 55] | < 0.1 µM |
| CC[C@@H](NS(=O)(=O)c1ccc(-c2sc(NC(C)=O)nc2C)o1)c1ccccc1 [Compound 66] | < 0.1 µM |
| CC(=O)Nc1nc(C)c(-c2ccc(S(=O)(=O)N[C@@H]3c4ccccc4C[C@@H]3O)o2)s1 [Compound 73] | < 0.1 µM |
| CNS(=O)(=O)c1ccc(-c2sc(NC(C)=O)nc2C)o1 [Compound 20] | < 0.1 µM |
| COc1ccccc1CNS(=O)(=O)c1ccc(-c2sc(NC(C)=O)nc2C)o1 [Compound 58] | < 0.1 µM |
| CC(=O)Nc1nc(C)c(-c2ccc(S(=O)(=O)N3CC(C)OC(C)C3)o2)s1 (centres unmarked) [Compound 32] | < 0.1 µM |
| CC(=O)Nc1nc(C)c(-c2ccc(S(=O)(=O)NCc3cccc(Br)c3)o2)s1 [Compound 38] | < 0.1 µM |
| CC(=O)Nc1nc(C)c(-c2ccc(C(=O)NC3(CO)CCCC3)o2)s1 [Compound 12] | 0.1 to 1 µM |
| CC(=O)Nc1nc(C)c(-c2ccc(C(=O)NCc3cc(Cl)cc(Cl)c3)o2)s1 [Compound 3] | 1 to 5 µM |
| CC(=O)Nc1nc(C)c(-c2ccc(C(=O)N3CCC(O)C3)o2)s1 (centres unmarked) [Compound 14] | 0.1 to 1 µM |
| CC(=O)Nc1nc(C)c(-c2ccc(S(=O)(=O)N(C)CCO)o2)s1 [Compound 24] | < 0.1 µM |
| CC(=O)NCCNS(=O)(=O)c1ccc(-c2sc(NC(C)=O)nc2C)o1 [Compound 27] | < 0.1 µM |
| CC(=O)Nc1nc(C)c(-c2ccc(C(=O)NCc3c(Cl)cccc3Cl)o2)s1 [Compound 18] | 0.1 to 1 µM |
| CC(=O)Nc1nc(C)c(-c2ccc(S(=O)(=O)NCc3ccccc3C)o2)s1 [Compound 67] | < 0.1 µM |
| COc1cc(CNS(=O)(=O)c2ccc(-c3sc(NC(C)=O)nc3C)o2)cc(OC)c1 [Compound 45] | 0.1 to 1 µM |
| CC(=O)Nc1nc(C)c(-c2ccc(S(=O)(=O)N3CCN(C)CC3)o2)s1 [Compound 31] | < 0.1 µM |

| SMILES | Ki |
| --- | --- |
| CC(=O)Nc1nc(C)c(-c2ccc(S(=O)(=O)Nc3c(F)cccc3F)o2)s1 [Compound 70] | 0.1 to 1 µM |
| CC(=O)Nc1nc(C)c(-c2ccc(S(=O)(=O)NCc3cccc(NS(C)(=O)=O)c3)o2)s1 [Compound 47] | < 0.1 µM |
| CC(=O)Nc1nc(C)c(-c2ccc(S(=O)(=O)NCC#N)o2)s1 [Compound 64] | < 0.1 µM |
| CC(=O)Nc1nc(C)c(-c2ccc(S(=O)(=O)N(C)C)o2)s1 [Compound 21] | < 0.1 µM |
| CC(=O)Nc1nc(C)c(-c2ccc(S(=O)(=O)N(C)Cc3ccccc3)o2)s1 [Compound 48] | < 0.1 µM |
| CC(=O)Nc1nc(C)c(-c2ccc(S(=O)(=O)NCC(F)F)o2)s1 [Compound 60] | < 0.1 µM |
| CC(=O)Nc1nc(C)c(-c2ccc(S(=O)(=O)N3CCCCC3)o2)s1 [Compound 30] | < 0.1 µM |
| CC(=O)Nc1nc(C)c(-c2ccc(S(=O)(=O)N[C@H](C)c3ccccc3)o2)s1 [Compound 51] | < 0.1 µM |
| CC(=O)Nc1nc(C)c(-c2ccc(S(=O)(=O)NCc3cccc(OC(F)(F)F)c3)o2)s1 [Compound 43] | 0.1 to 1 µM |
| CC(=O)Nc1nc(C)c(-c2ccc(S(=O)(=O)NCc3cccc(C(F)(F)F)c3)o2)s1 [Compound 42] | < 0.1 µM |
| CC(=O)Nc1nc(C)c(-c2ccc(S(=O)(=O)NC3CC3)o2)s1 [Compound 28] | < 0.1 µM |
| CC(=O)Nc1nc(C)c(-c2ccc(S(=O)(=O)N[C@@H](C)c3ccccc3)o2)s1 [Compound 49] | < 0.1 µM |
| CC(=O)Nc1nc(C)c(-c2ccc(C(=O)N3CCCC(O)C3)o2)s1 (centres unmarked) [Compound 17] | 0.1 to 1 µM |
| CC(=O)Nc1nc(C)c(-c2ccc(S(=O)(=O)N[C@H]3CCc4ccccc43)o2)s1 [Compound 56] | < 0.1 µM |
| CC(=O)Nc1nc(C)c(-c2ccc(S(=O)(=O)Nc3ccccc3F)o2)s1 [Compound 69] | < 0.1 µM |
| CC(=O)Nc1nc(C)c(-c2ccc(S(=O)(=O)NCC(F)(F)F)o2)s1 [Compound 68] | < 0.1 µM |
| CC(=O)Nc1nc(C)c(-c2ccc(S(=O)(=O)NCCF)o2)s1 [Compound 59] | < 0.1 µM |
| CC(=O)Nc1nc(C)c(-c2ccc(S(N)(=O)=O)o2)s1 [Compound 19] | < 0.1 µM |
| CC(=O)Nc1nc(C)c(-c2ccc(S(=O)(=O)NC(C#N)c3ccccc3)o2)s1 (centres unmarked) [Compound 63] | < 0.1 µM |
| CC(=O)Nc1nc(C)c(-c2ccc(S(=O)(=O)NC(C)(C)c3ccccc3)o2)s1 [Compound 54] | < 0.1 µM |
| COCCNS(=O)(=O)c1ccc(-c2sc(NC(C)=O)nc2C)o1 [Compound 23] | < 0.1 µM |
| CC(=O)Nc1nc(C)c(-c2ccc(C(=O)N3CCCC(C)C3)o2)s1 (centres unmarked) [Compound 6] | 0.1 to 1 µM |
| CC(=O)Nc1nc(C)c(-c2ccc(S(=O)(=O)N[C@@H]3CCc4ccccc43)o2)s1 [Compound 57] | < 0.1 µM |
| CC(=O)Nc1nc(C)c(-c2ccc(S(=O)(=O)Nc3ccccc3C)o2)s1 [Compound 65] | < 0.1 µM |

| SMILES | Ki |
| --- | --- |
| CC(=O)Nc1nc(C)c(-c2ccc(S(=O)(=O)NCC(C)C)o2)s1 [Compound 25] | < 0.1 µM |
| CC(=O)Nc1nc(C)c(-c2ccc(S(=O)(=O)NCc3cccc([N+](=O)[O-])c3)o2)s1 [Compound 40] | < 0.1 µM |
| CC(=O)Nc1nc(C)c(-c2ccc(C(=O)NCCC#N)o2)s1 [Compound 9] | 0.1 to 1 µM |
| CC(=O)Nc1nc(C)c(-c2ccc(C(=O)N3CCSCC3)o2)s1 [Compound 5] | 0.1 to 1 µM |
| CC(=O)Nc1nc(C)c(-c2ccc(S(=O)(=O)Nc3ccccc3)o2)s1 [Compound 33] | < 0.1 µM |
| COC(=O)c1nc(NC(C)=O)sc1-c1ccc(S(=O)(=O)NCc2ccccc2)o1 [Compound 72] | 0.1 to 1 µM |
| CC(=O)Nc1nc(C)c(-c2ccc(C(=O)N3CCC(N4CCCC4)CC3)o2)s1 [Compound 15] | 1 to 5 µM |
| CC(=O)Nc1nc(C)c(-c2ccc(C(=O)N[C@@H](CO)c3ccccc3)o2)s1 [Compound 10, (R)-5-(2-acetamido-4-methylthiazol-5-yl)-N-(2-hydroxy-1-phenylethyl)furan-2-carboxamide] | 0.1 to 1 µM |
| CC(=O)Nc1nc(C)c(-c2ccc(C(=O)N3CCCC(c4ccc(F)cc4)C3)o2)s1 (centres unmarked) [Compound 13] | 0.1 to 1 µM |
| CC(=O)Nc1nc(C)c(-c2ccc(S(=O)(=O)NC3CCCC3)o2)s1 [Compound 29] | < 0.1 µM |
| CC(=O)Nc1nc(C)c(-c2ccc(S(=O)(=O)N[C@H]3c4ccccc4C[C@H]3O)o2)s1 [Compound 74] | < 0.1 µM |
| CC[C@H](NS(=O)(=O)c1ccc(-c2sc(NC(C)=O)nc2C)o1)c1ccccc1 [Compound 50] | < 0.1 µM |
| CC(=O)Nc1nc(C)c(-c2ccc(C(=O)N(C)Cc3ccco3)o2)s1 [Compound 2] | 0.1 to 1 µM |
| CC(=O)Nc1nc(C)c(-c2ccc(S(=O)(=O)N[C@H](CCO)c3ccccc3)o2)s1 [Compound 52] | < 0.1 µM |
| CC(=O)Nc1nc(C)c(-c2ccc(S(=O)(=O)NCc3cc(F)cc(F)c3)o2)s1 [Compound 46] | < 0.1 µM |
| CC(=O)Nc1nc(C)c(-c2ccc(S(=O)(=O)NCc3ccccc3)o2)s1 [Compound 34] | < 0.1 µM |
| COC(=O)c1nc(NC(C)=O)sc1-c1ccc(S(=O)(=O)N(C)Cc2ccccc2)o1 [Compound 71] | 1 to 5 µM |
| CC(=O)Nc1nc(C)c(-c2ccc(S(=O)(=O)NCc3cccc(O)c3)o2)s1 [Compound 41] | < 0.1 µM |
| CC(=O)Nc1nc(C)c(-c2ccc(S(=O)(=O)NCCO)o2)s1 [Compound 22] | < 0.1 µM |
| CC(=O)Nc1nc(C)c(-c2ccc(C(=O)N3CCCC3c3cccc(Br)c3)o2)s1 (centres unmarked) [Compound 4] | 1 to 5 µM |
| CC(=O)Nc1nc(C)c(-c2ccc(C(=O)N3CCN(Cc4ccccc4)CC3)o2)s1 [Compound 8] | 0.1 to 1 µM |
| CC(=O)Nc1nc(C)c(-c2ccc(S(=O)(=O)NCc3cccc(I)c3)o2)s1 [Compound 39] | < 0.1 µM |
